# Test results taken from ChEMBL document CHEMBL2073914, “Are MDCK cells transfected with the human MRP2 gene a good model of the human intestinal mucosa?” (Pharm Res, 2002).
# Columns and labels:
# Assay type in all cases: functional, cell-based
# [1] = target: T1, ATP-binding cassette sub-family C member 2 (Homo sapiens, UniProt Q92887); assay: TP_TRANSPORTER: inhibition of Vinblastine transepithelial transport (basal to apical) in MRP2-expressing MDCK cells
# [2] = target: T1, ATP-binding cassette sub-family C member 2; assay: TP_TRANSPORTER: inhibition of Vinblastine transepithelial transport (basal to apical)(Quinidine: 15 uM) in MRP2-expressing MDCK cells
# [3] = target: T1, ATP-binding cassette sub-family C member 2; assay: TP_TRANSPORTER: inhibition of Vinblastine transepithelial transport (basal to apical)(GF120918: 12 uM) in MRP2-expressing MDCK cells
# T1 sequence (Q92887 whole entry): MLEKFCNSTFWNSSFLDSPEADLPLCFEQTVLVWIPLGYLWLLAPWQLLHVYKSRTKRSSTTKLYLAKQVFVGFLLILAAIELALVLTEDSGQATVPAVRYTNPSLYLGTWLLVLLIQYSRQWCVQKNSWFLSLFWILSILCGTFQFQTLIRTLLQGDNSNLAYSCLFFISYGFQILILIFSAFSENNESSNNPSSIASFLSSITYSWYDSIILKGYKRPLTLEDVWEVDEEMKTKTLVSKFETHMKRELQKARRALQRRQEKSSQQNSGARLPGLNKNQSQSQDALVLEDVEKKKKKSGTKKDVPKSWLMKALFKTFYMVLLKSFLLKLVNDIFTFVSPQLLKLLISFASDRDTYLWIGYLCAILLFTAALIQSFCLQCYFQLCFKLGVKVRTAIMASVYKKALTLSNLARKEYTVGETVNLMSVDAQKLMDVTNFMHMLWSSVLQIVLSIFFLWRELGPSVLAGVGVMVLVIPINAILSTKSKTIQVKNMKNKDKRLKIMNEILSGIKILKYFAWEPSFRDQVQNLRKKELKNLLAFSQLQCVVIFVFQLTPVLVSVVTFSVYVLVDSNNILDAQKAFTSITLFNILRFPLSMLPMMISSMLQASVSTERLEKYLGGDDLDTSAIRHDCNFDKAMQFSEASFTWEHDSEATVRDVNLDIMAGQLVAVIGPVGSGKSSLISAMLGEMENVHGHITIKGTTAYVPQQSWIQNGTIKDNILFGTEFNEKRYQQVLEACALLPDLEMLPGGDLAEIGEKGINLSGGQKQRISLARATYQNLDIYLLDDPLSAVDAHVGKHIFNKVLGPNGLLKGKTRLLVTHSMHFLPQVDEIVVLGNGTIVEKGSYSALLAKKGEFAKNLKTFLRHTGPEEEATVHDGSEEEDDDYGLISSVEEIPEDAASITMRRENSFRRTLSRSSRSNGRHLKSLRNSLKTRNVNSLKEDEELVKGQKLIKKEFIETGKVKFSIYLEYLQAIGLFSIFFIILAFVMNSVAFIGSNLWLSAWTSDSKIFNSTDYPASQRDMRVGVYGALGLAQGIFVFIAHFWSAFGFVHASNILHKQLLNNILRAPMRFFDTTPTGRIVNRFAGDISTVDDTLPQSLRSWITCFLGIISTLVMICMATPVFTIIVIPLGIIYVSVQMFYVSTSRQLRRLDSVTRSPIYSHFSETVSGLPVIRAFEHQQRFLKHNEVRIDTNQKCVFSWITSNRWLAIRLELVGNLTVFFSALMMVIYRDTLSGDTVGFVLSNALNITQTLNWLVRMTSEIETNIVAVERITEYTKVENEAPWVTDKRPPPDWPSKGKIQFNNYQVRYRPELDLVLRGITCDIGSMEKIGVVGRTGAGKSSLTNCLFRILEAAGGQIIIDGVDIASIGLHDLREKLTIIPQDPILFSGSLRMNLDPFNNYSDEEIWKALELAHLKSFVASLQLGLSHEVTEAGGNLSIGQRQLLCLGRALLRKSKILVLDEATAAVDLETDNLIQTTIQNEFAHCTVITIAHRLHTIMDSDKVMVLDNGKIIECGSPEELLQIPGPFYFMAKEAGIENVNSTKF
Ki [1],SMILES,also measured
26.4 µM,CN(C)C(=O)CCSC(SCCC(=O)O)c1cccc(/C=C/c2ccc3ccc(Cl)cc3n2)c1 (configuration not stated) [MK-571],
295 µM,COC(=O)[C@H]1[C@H]2C[C@@H]3c4[nH]c5cc(OC)ccc5c4CCN3C[C@H]2C[C@@H](OC(=O)c2cc(OC)c(OC)c(OC)c2)[C@@H]1OC [RESERPINE],
756 µM,COc1cc([C@@H]2c3cc4c(cc3[C@@H](O[C@@H]3O[C@@H]5CO[C@@H](C)O[C@H]5[C@H](O)[C@H]3O)[C@H]3COC(=O)[C@H]23)OCO4)cc(OC)c1O [ETOPOSIDE],
,C=C[C@H]1CN2CC[C@H]1C[C@@H]2[C@@H](O)c1ccnc2ccc(OC)cc12 [QUINIDINE],Ki [2]: is not an inhibitor [Ki=No inhibition]
,COc1cc2c(cc1OC)CN(CCc1ccc(NC(=O)c3cccc4c(=O)c5cccc(OC)c5[nH]c34)cc1)CC2.Cl [ELACRIDAR HYDROCHLORIDE],Ki [3]: is not an inhibitor [Ki=No inhibition]
49.4 µM,COc1cccc2c1C(=O)c1c(O)c3c(c(O)c1C2=O)C[C@@](O)(C(C)=O)C[C@@H]3O[C@H]1C[C@H](N)[C@H](O)[C@H](C)O1 [DAUNORUBICIN],
802 µM,CC[C@]1(O)C[C@H]2CN(CCc3c([nH]c4ccccc34)[C@@](C(=O)OC)(c3cc4c(cc3OC)N(C=O)[C@H]3[C@@](O)(C(=O)OC)[C@H](OC(C)=O)[C@]5(CC)C=CCN6CC[C@]43[C@@H]65)C2)C1 [VINCRISTINE],
